Where a name gives a salt, the structure may show the parent alone. Some results are limits rather than exact numbers.

The target in the experiment is T1, recombinant human MCHR1-receptors (Homo sapiens, UniProt Q99705).
T1 construct: expressed in transfected cells
T1 sequence (Q99705 whole entry): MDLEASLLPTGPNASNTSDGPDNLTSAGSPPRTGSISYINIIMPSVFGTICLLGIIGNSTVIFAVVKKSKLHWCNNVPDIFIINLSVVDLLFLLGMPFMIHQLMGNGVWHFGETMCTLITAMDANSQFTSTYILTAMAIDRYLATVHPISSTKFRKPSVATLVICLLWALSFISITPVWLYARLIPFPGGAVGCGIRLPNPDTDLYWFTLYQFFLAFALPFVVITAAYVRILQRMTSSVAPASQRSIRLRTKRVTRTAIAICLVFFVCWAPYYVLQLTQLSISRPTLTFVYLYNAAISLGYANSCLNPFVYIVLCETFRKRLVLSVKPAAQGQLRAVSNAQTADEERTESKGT
As to the kind of experiment: MCHR filter binding assay (competition binding). As to conditions: membranes from CHO-K1 cells expressing human MCHR1; 0.2 nM [Phe13,[125I]Tyr19]-MCH; read-out: IC50 (nM), in vitro activity (binding assay). As for the experimental part:
MCHR Filter Binding Assay
Competition binding assays were performed using membranes from CHO-K1 cells stably expressing the recombinant human MCHR1-receptors. Binding reactions (90 μl, final volume) were carried out at rt by incubating 2.8 μg membranes with 0.2 nM [Phe^13,[^125I]Tyr^19]-MCH (PerkinElmer) in the absence or presence of various concentrations of competing ligands in binding buffer (50 mM HEPES, 2.5 mM CaCl2, 0.05 mM BSA, 1 mM phenanthroline, 0.03 mM Triton X-100). [Phe^13,[^125I]Tyr^19]-MCH was added 15 min following the addition of unlabeled competing ligands, and the reactions incubated for a 1 h period. The reactions were terminated by rapid filtration over pretreated 96-well filter plates (Millipore; MultiScreen 0.65 μm GFB filter plates). Filter Plates were treated for 12 h at 4° C. with a 0.5% polyvinylpyrrolidone solution containing 1% BSA and 0.1% Tween 20, and then washed with an ice-cold solution of 10 mM Tris, pH 7.5 (5×200 μl). The plates were drained following a 5 min incubation with binding buffer (200 μl) at rt. Following termination of the binding reactions, the filters were washed with ice-cold binding buffer (4×200 μl). The filter plates were air dried for 30 min, scintillation cocktail (60 μl) added to each well and radioactivity bound to the plates was determined using a Micro-beta plate reader (Wallace/PerkinElmer).
One may read the IC50 as the concentration needed to halve the response being measured. For `COC(=O)Nc1ccc2c(c1)C[C@H](CN1CCC(n3c(C(C)(C)C)nc4cc(C)ccc43)CC1)C2` [Example 40, {(R)-2-[4-(2-tert-Butyl-5-methyl-benzoimidazol-1-yl)-piperidin-1-ylmethyl]-indan-5-yl}-carbamic acid methyl ester], the IC50 is less than 20 nM. Take `Cc1ccc2c(c1)nc(C)n2[C@@H]1CCN(C[C@@H]2Cc3ccc(NC(=O)C(C)C)cc3C2)C[C@H]1OS(C)(=O)=O` [Example 7, Methanesulfonic acid 4-(2,5-dimethyl-benzoimidazol-1-yl)-1-((R)-5-isobutyrylamino-indan-2-ylmethyl)-piperidin-3-yl ester]: the IC50 lay within 20 to 200 nM. As for `CO[C@@H]1CN(C[C@@H]2Cc3ccc(NC(=O)C4CC4)cc3C2)CC[C@H]1n1c(C2CC2)nc2cc(C)ccc21` [Example 80, Cyclopropanecarboxylic acid {(R)-2-[(3R,4R)-4-(2-cyclopropyl-5-methyl-benzoimidazol-1-yl)-3-methoxy-piperidin-1-ylmethyl]-indan-5-yl}-amide], the figure is 200 to 5000 nM. As for `CO[C@@H]1CN(CC2Cc3ccccc3C2)CC[C@H]1n1c(C(C)(C)O)nc2cc(C)ccc21` [Example 107, 2-[1-((3R,4R)-1-Indan-2-ylmethyl-3-methoxy-piperidin-4-yl)-5-methyl-1H-benzoimidazol-2-yl]-propan-2-ol], the figure is 20 to 200 nM; as for `Cc1ccc2c(c1)nc(C(C)(C)O)n2C1CCN(CC2Cc3ccncc3C2)CC1` (stereo not shown) [Example 12, 2-{1-[1-(6,7-Dihydro-5H-[2]pyrindin-6-ylmethyl)-piperidin-4-yl]-5-methyl-1H-benzoimidazol-2-yl}-propan-2-ol], 20 to 200 nM; as for `Cc1ccc2c(c1)nc(Cl)n2C1CCN(C[C@@H]2Cc3ccc(N)cc3C2)CC1` [Example 31, (R)-2-[4-(2-Chloro-5-methyl-benzoimidazol-1-yl)-piperidin-1-ylmethyl]-indan-5-ylamine; dihydrochloride], 200 to 5000 nM.

As to `Cc1ccc2c(c1)nc(C(C)(C)O)n2C1CCN(CC2Cc3ccc(Cl)cc3C2)CC1` (stereo not shown) [Example 14, 2-{1-[1-(5-Chloro-indan-2-ylmethyl)-piperidin-4-yl]-5-methyl-1H-benzoimidazol-2-yl}-propan-2-ol], the IC50 is less than 20 nM. As for `CO[C@@H]1CN(C[C@H]2Cc3ccc(Br)cc3C2)CC[C@H]1n1c(C(C)(C)O)nc2cc(C)c(F)cc21` [Example 123, 2-{1-[(3R,4R)-1-((S)-5-Bromo-indan-2-ylmethyl)-3-methoxy-piperidin-4-yl]-6-fluoro-5-methyl-1H-benzoimidazol-2-yl}-propan-2-ol], the figure is less than 20 nM. As for `Cc1ccc2c(c1)nc(C(C)(C)O)n2C1CCN(C[C@H]2Cc3ccc(Br)cc3C2)CC1` [Example 99, 2-{1-[1-((S)-5-Bromo-indan-2-ylmethyl)-piperidin-4-yl]-5-methyl-1H-benzoimidazol-2-yl}-propan-2-ol], the figure is less than 20 nM; as for `CO[C@@H]1CN(C[C@H]2Cc3ccc(C#N)cc3C2)CC[C@H]1n1c(C)nc2cc(C)ccc21` [Example 85, (S)-2-[(3R,4R)-4-(2,5-Dimethyl-benzoimidazol-1-yl)-3-methoxy-piperidin-1-ylmethyl]-indan-5-carbonitrile], less than 20 nM; as for `COc1ccc2c(c1)CC(CN1CC[C@H](n3c(C)nc4cc(C)ccc43)[C@@H](OC)C1)C2` (stereo partly drawn) [Example 92, 1-[(3S,4S)-3-Methoxy-1-(5-methoxy-indan-2-ylmethyl)-piperidin-4-yl]-2,5-dimethyl-1H-benzoimidazole; dihydrochloride], 20 to 200 nM.

For `COC(=O)Nc1ccc2c(c1)C[C@H](CN1CC[C@H](n3c(C4CC4)nc4cc(C)ccc43)[C@@H](OC)C1)C2` [Example 71, {(R)-2-[(3S,4S)-4-(2-Cyclopropyl-5-methyl-benzoimidazol-1-yl)-3-methoxy-piperidin-1-ylmethyl]-indan-5-yl}-carbamic acid methyl ester], the IC50 is less than 20 nM. As for `Cc1ccc2c(c1)nc(C)n2[C@@H]1CCN(C[C@@H]2Cc3ccc(NC(=O)C(C)C)cc3C2)C[C@H]1OCC(C)(C)O` [Example 21, N-{(R)-2-[(3R,4R)-4-(2,5-Dimethyl-benzoimidazol-1-yl)-3-(2-hydroxy-2-methyl-propoxy)-piperidin-1-ylmethyl]-indan-5-yl}-isobutyramide; dihydrochloride], the figure is 20 to 200 nM.

On to `CCc1nc2cc(C)ccc2n1C1CCN(CC2Cc3ccc(NC(=O)C(C)C)cc3C2)CC1` (stereo not shown) [Example 70, N-{2-[4-(2-Ethyl-5-methyl-benzoimidazol-1-yl)-piperidin-1-ylmethyl]-indan-5-yl}-isobutyramide], for which the IC50 is less than 20 nM.

Consider `COC(=O)Nc1ccc2c(c1)C[C@H](CN1CC[C@@H](n3c(C4CC4)nc4cc(C)ccc43)[C@H](OC)C1)C2` [Example 75, {(R)-2-[(3R,4R)-4-(2-Cyclopropyl-5-methyl-benzoimidazol-1-yl)-3-methoxy-piperidin-1-ylmethyl]-indan-5-yl}-carbamic acid methyl ester], for which the IC50 is 20 to 200 nM. As for `CO[C@@H]1CN(C[C@H]2Cc3ccc(F)cc3C2)CC[C@H]1n1c(C(C)(C)O)nc2cc(C)ccc21` [Example 108, 2-{1-[(3R,4R)-1-((S)-5-Fluoro-indan-2-ylmethyl)-3-methoxy-piperidin-4-yl]-5-methyl-1H-benzoimidazol-2-yl}-propan-2-ol], the figure is 20 to 200 nM. As for `Cc1ccc2c(c1)nc(C(C)C)n2[C@@H]1CCN(C[C@@H]2Cc3ccc(NC(=O)C(C)C)cc3C2)C[C@H]1O` [Example 86, N-{(R)-2-[(3R,4R)-3-Hydroxy-4-(2-isopropyl-5-methyl-benzoimidazol-1-yl)-piperidin-1-ylmethyl]-indan-5-yl}-isobutyramide], the figure is 20 to 200 nM; as for `CCOc1nc2cc(C)ccc2n1C1CCN(CC2Cc3ccc(NC(=O)C(C)C)cc3C2)CC1` (stereo in doubt) [Example 4, N-{(S)-2-[4-(2-Ethoxy-5-methyl-benzoimidazol-1-yl)-piperidin-1-ylmethyl]-indan-5-yl}-isobutyramide], 20 to 200 nM. As for `Cc1ccc2c(c1)nc(C)n2[C@@H]1CCN(C[C@H]2Cc3ccc(NC(=O)C(C)C)cc3C2)C[C@H]1O` [Example 9, N-{(S)-2-[(3R,4R)-4-(2,5-Dimethyl-benzoimidazol-1-yl)-3-hydroxy-piperidin-1-ylmethyl]-indan-5-yl}-isobutyramide; trifluoroacetic acid salt], the figure is 20 to 200 nM; as for `CO[C@@H]1CN(C[C@@H]2Cc3ccc(Br)cc3C2)CC[C@H]1n1c(C)nc2cc(C)ccc21` [Example 87, 1-[(3R,4R)-1-((R)-5-Bromo-indan-2-ylmethyl)-3-methoxy-piperidin-4-yl]-2,5-dimethyl-1H-benzoimidazole; dihydrochloride], 20 to 200 nM. With `CO[C@@H]1CN(CC2Cc3ccccc3C2)CC[C@H]1n1c(C(C)C)nc2cc(C)ccc21` [Example 24, 1-((3R,4R)-1-Indan-2-ylmethyl-3-methoxy-piperidin-4-yl)-2-isopropyl-5-methyl-1H-benzoimidazole], the IC50 is 20 to 200 nM. As for `Cc1ccc2c(c1)nc(-c1ccccc1)n2C1CCN(C[C@@H]2Cc3ccc(N)cc3C2)CC1` [Example 52, (R)-2-[4-(5-Methyl-2-phenyl-benzoimidazol-1-yl)-piperidin-1-ylmethyl]-indan-5-ylamine], the figure is 20 to 200 nM.

The values above are taken from patent publication US7803816B2, “MCH receptor antagonists” (Hoffmann-La Roche Inc., priority 2005, dated 2010).
